Data on 1 compound can be found in article PMC7159882, “Polyunsaturated fatty acid analogues differentially affect cardiac NaV, CaV, and KV channels through unique mechanisms” (eLife, 2020).

In this assay the test system is human induced pluripotent stem cell-derived cardiomyocytes (hiPSC-CM). Briefly: Optical recordings of calcium transients in hiPSC-CM monolayers. The class given is cell-based. Here is the method:
Human induced pluripotent stem cell-derived cardiomyocytes (hiPSC-CM) were purchased from AXOL Bioscience. The hiPSC-CM were thawed and plated following the manufacturer’s protocol. Briefly, cells were plated on Matrigel (Corning) pre-coated glass coverslips cultivated in 96-multiwell plates (Falcon). Matrigel was diluted in sterile DMEM/F12 medium (Gibco) (1:130) and incubated for 2 hr at 37°C before plating the cells. hiPSC-CM were cultured at 37°C and 5% CO2. Cultured hiPSC-CM were fed every other day. […]
CaT fluorescence recordings from cell monolayers were recorded using a Leica DM LFS upright microscope. […] Fluorescence signals were passed through the emission filter, collected by a photodiode, and amplified with an Axopatch 200B patch clamp amplifier (Axon Instruments). Calcium fluorescence signals were low-pass Bessell-filtered (Frequency Devices) at 100 Hz, digitized at 1 kHz, and recorded using Clampex 9.2 and analyzed using Clampfit 9.2. […] Since hiPSC-CM were spontaneously beating and at slightly different frequencies between monolayers, the frequency of the action potentials was calculated as the inverse of the time between CaTs. The action potential duration (APD) was measured in the absence and the presence of DHA-Glycine. The APD90 (or the time required to achieve the 90% of repolarization of the CaT) was measured in all the experiments to test the effects of DHA-glycine. […]

As to `CC/C=C\C/C=C\C/C=C\C/C=C\C/C=C\C/C=C\CCC(=O)NCC(=O)O` [DHA-glycine, docosahexaenoyl glycine], under “30 µM, corrected by modified Fridericia's formula, control 472 ± 27 ms, n = 3”, the “CaT APD90c” value is listed as 317 ± 9 ms. Moreover, the “effect on hiPSC-derived cardiomyocytes at lower doses” value (doses lower than 30 μM) is recorded as “did not get significant effects at low doses”.
